Measurements taken from patent publication US20250281424A1 (New York Blood Center, Inc, priority 2020, published 2025).

Target: T1, human PF4 (Homo sapiens, UniProt P02776)
T1 construct: PF4 is a 70 amino acid, lysine-rich 7.8 kDa platelet-specific protein; made in house; host or cells: Escherichia coli BL21DE3 pLysS (pT7-7) and/or Drosophila S2 cells
T1 sequence (P02776 32-101): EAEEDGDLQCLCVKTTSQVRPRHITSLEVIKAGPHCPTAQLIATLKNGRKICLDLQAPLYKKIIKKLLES
Assay: Inhibition of PF4 tetramer formation (BS3 cross-linking, SDS-PAGE)
Assay type: biochemical
Conditions: for inhibition at 5 µM: 5 μM inhibitor; for inhibition at 5 µM / inhibition at 10 µM / inhibition at 1 µM / inhibition at 3 µM: read-out: % inhibition of PF4 tetramer formation at single concentration of inhibitor; for inhibition at 10 µM: 10 μM inhibitor (column A); for IC50: read-out: IC50 of PF4 tetramer formation inhibition; for inhibition at 1 µM: 1 μM inhibitor; for inhibition at 3 µM: 3 μM inhibitor (column A)
In short: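 Monomer, dimer, trimer and tetramer fractions were quantified by densitometry after reducing 12% SDS-PAGE of BS3-cross-linked (0.2 mM, 30 min, room temperature) PF4. Before cross-linking, 10 μg/ml E. coli-expressed human WT PF4 in PBS was exposed to compound for 15 min at 37° C or 60 min at room temperature; controls lacked compound.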

Structure (SMILES)	inhibition at 5 µM	inhibition at 10 µM	IC50	inhibition at 1 µM	inhibition at 3 µM
CC(C)C(=O)NCC(=O)C1C(=O)c2ccc(C(=O)c3ccc4c(c3)C(=O)C(C(=O)CNC(=O)C(C)C)C4=O)cc2C1=O (centres unmarked) [Example 187, 2-methyl-N-[2-(5-{2-[2-(2-methylpropanamido)acetyl]-1,3-dioxo-2,3-dihydro-1H-indene-5-carbonyl}-1,3-dioxo-2,3-dihydro-1H-inden-2-yl)-2-oxoethyl]propanamide]	88%	90%	2600 nM		
Cc1cccc(NC(=O)C2C(=O)c3ccc(C(=O)c4ccc5c(c4)C(=O)C(C(=O)Nc4cccc(C)c4)C5=O)cc3C2=O)c1 (centres unmarked) [Example 38, 5,5′-carbonylbis(1,3-dioxo-n-(m-tolyl)-2,3-dihydro-1h-indene-2-carboxamide)]	74%	88%	1070 nM		
O=C(NC1CC1)C1C(=O)c2ccc(C#Cc3ccc4c(c3)C(=O)C(C(=O)NC3CC3)C4=O)cc2C1=O (centres unmarked) [Example 300, N-cyclopropyl-5-{2-[2-(cyclopropylcarbamoyl)-1,3-dioxo-2,3-dihydro-1H-inden-5-yl]ethynyl}-1,3-dioxo-2,3-dihydro-1H-indene-2-carboxamide]				22%	32%
COCCOCCNC(=O)C1C(=O)c2ccc(C#Cc3ccc4c(c3)C(=O)C(C(=O)NCCOCCOC)C4=O)cc2C1=O (centres unmarked) [Example 381, N-[2-(2-methoxyethoxy)ethyl]-5-[2-(2-{[2-(2-methoxyethoxy)ethyl]carbamoyl}-1,3-dioxo-2,3-dihydro-1H-inden-5-yl)ethynyl]-1,3-dioxo-2,3-dihydro-1H-indene-2-carboxamide]				7%	19%
O=C(NCc1ccco1)C1C(=O)c2ccc(S(=O)(=O)c3ccc4c(c3)C(=O)C(C(=O)NCc3ccco3)C4=O)cc2C1=O (centres unmarked) [Example 104, N-[(furan-2-yl)methyl]-5-[(2-{[(furan-2-yl)methyl]carbamoyl}-1,3-dioxo-2,3-dihydro-1H-inden-5-yl)sulfonyl]-1,3-dioxo-2,3-dihydro-1H-indene-2-carboxamide]			1400 nM		
CC(C)(C)OC(=O)N1CCCC[C@@H]1C(=O)C1C(=O)c2ccc(Oc3ccc4c(c3)C(=O)C(C(=O)[C@H]3CCCCN3C(=O)OC(C)(C)C)C4=O)cc2C1=O (stereo partly drawn) [Example 274, tert-butyl (2R)-2-[5-({2-[(2R)-1-[(tert-butoxy)carbonyl]piperidine-2-carbonyl]-1,3-dioxo-2,3-dihydro-1H-inden-5-yl}oxy)-1,3-dioxo-2,3-dihydro-1H-indene-2-carbonyl]piperidine-1-carboxylate]				21%	60%
O=C(c1ccc2c(c1)C(=O)C(C(=O)NC1CCC1)C2=O)c1ccc2c(c1)C(=O)C(C(=O)NC1CCC1)C2=O (centres unmarked) [Example 68, 5,5′-carbonylbis(n-cyclobutyl-1,3-dioxo-2,3-dihydro-1h-indene-2-carboxamide)]	45%	86%	1540 nM		
O=C(c1ccc2c(c1)C(=O)C(C(=O)NC1CCCC1)C2=O)c1ccc2c(c1)C(=O)C(C(=O)NC1CCCC1)C2=O (centres unmarked) [Example 71, 5,5′-carbonylbis(n-cyclopentyl-1,3-dioxo-2,3-dihydro-1h-indene-2-carboxamide)]	2%	85%	1000 nM		
O=C(COc1ccccc1)C1C(=O)c2ccc(S(=O)(=O)c3ccc4c(c3)C(=O)C(C(=O)COc3ccccc3)C4=O)cc2C1=O (centres unmarked) [Example 144, 5-{[1,3-dioxo-2-(2-phenoxyacetyl)-2,3-dihydro-1H-inden-5-yl]sulfonyl}-2-(2-phenoxyacetyl)-2,3-dihydro-1H-indene-1,3-dione]			4700 nM		
O=C(NCCc1ccc(F)cc1)C1C(=O)c2ccc(S(=O)(=O)c3ccc4c(c3)C(=O)C(C(=O)NCCc3ccc(F)cc3)C4=O)cc2C1=O (centres unmarked) [Example 83, N-[2-(4-fluorophenyl)ethyl]-5-[(2-{[2-(4-fluorophenyl)ethyl]carbamoyl}-1,3-dioxo-2,3-dihydro-1H-inden-5-yl)sulfonyl]-1,3-dioxo-2,3-dihydro-1H-indene-2-carboxamide]			2300 nM		
COCCNC(=O)C1C(=O)c2ccc(S(=O)(=O)c3ccc4c(c3)C(=O)C(C(=O)NCCOC)C4=O)cc2C1=O (centres unmarked) [Example 73, 5,5′-sulfonylbis(n-(2-methoxyethyl)-1,3-dioxo-2,3-dihydro-1h-indene-2-carboxamide)]	0%	0%			
CC[C@H](NC(=O)OCc1ccccc1)C(=O)C1C(=O)c2ccc(C(=O)c3ccc4c(c3)C(=O)C(C(=O)[C@H](CC)NC(=O)OCc3ccccc3)C4=O)cc2C1=O (stereo partly drawn) [Example 165, benzyl N—[(S)-1-(5-{2-[(2S)-2-{[(benzyloxy)carbonyl]amino}butanoyl]-1,3-dioxo-2,3-dihydro-1H-indene-5-carbonyl}-1,3-dioxo-2,3-dihydro-1H-inden-2-yl)-1-oxobutan-2-yl]carbamate]	75%	75%	3300 nM		
COc1ccc(NC(=O)C2C(=O)c3ccc(S(=O)(=O)c4ccc5c(c4)C(=O)C(C(=O)Nc4ccc(OC)cc4)C5=O)cc3C2=O)cc1 (centres unmarked) [Example 35, 5,5′-sulphonylbis(1,3-dioxo-indan-2-carboxylic acid (4-methoxyphenyl)-amide)]	54%	77%	2850 nM		
CO[C@@H](C)C(=O)C1C(=O)c2ccc(S(=O)(=O)c3ccc4c(c3)C(=O)C(C(=O)[C@@H](C)OC)C4=O)cc2C1=O (stereo partly drawn) [Example 237, 2-[(2R)-2-methoxypropanoyl]-5-({2-[(2S)-2-methoxypropanoyl]-1,3-dioxo-2,3-dihydro-1H-inden-5-yl}sulfonyl)-2,3-dihydro-1H-indene-1,3-dione]				30%	37%
O=C(NC1CC1)C1C(=O)c2ccc(-c3ccc4c(c3)C(=O)C(C(=O)NC3CC3)C4=O)cc2C1=O (centres unmarked) [Example 110, (2Z,2′Z)-2,2′-bis[(cyclopropylamino)(hydroxyl)methylidene]-1H,1′H,2H,2′H,3H,3′H-[5,5′-biindene]-1,1′,3,3′-tetrone]	84%	87%	~4000 nM		
CSCCC(=O)C1C(=O)c2ccc(C(=O)c3ccc4c(c3)C(=O)C(C(=O)CCSC)C4=O)cc2C1=O (centres unmarked) [Example 277, 2-[3-(methylsulfanyl)propanoyl]-5-{2-[3-(methylsulfanyl)propanoyl]-1,3-dioxo-2,3-dihydro-1H-indene-5-carbonyl}-2,3-dihydro-1H-indene-1,3-dione]			3000 nM	38%	41%
COCC(=O)C1C(=O)c2ccc(Oc3ccc4c(c3)C(=O)C(C(=O)COC)C4=O)cc2C1=O (centres unmarked) [Example 249, 2-(2-methoxyacetyl)-5-{[2-(2-methoxyacetyl)-1,3-dioxo-2,3-dihydro-1H-inden-5-yl]oxy}-2,3-dihydro-1H-indene-1,3-dione]			3000 nM	19%	36%
CC(=O)C1C(=O)c2cc(S(=O)(=O)c3cnc4c(c3)C(=O)C(C(C)=O)C4=O)cnc2C1=O (centres unmarked) [Example 301, 6-acetyl-3-({6-acetyl-5,7-dioxo-5H,6H,7H-cyclopenta[b]pyridin-3-yl}sulfonyl)-5H,6H,7H-cyclopenta[b]pyridine-5,7-dione]				23%	30%
O=C(c1ccc2c(c1)C(=O)C(C(=O)C1CC1)C2=O)c1ccc2c(c1)C(=O)C(C(=O)C1CC1)C2=O (centres unmarked) [Example 401]				22%	23%
CSCCCC(=O)C1C(=O)c2ccc(S(=O)(=O)c3ccc4c(c3)C(=O)C(C(=O)CCCSC)C4=O)cc2C1=O (centres unmarked) [Example 285, 2-[4-(methylsulfanyl)butanoyl]-5-({2-[4-(methylsulfanyl)butanoyl]-1,3-dioxo-2,3-dihydro-1H-inden-5-yl}sulfonyl)-2,3-dihydro-1H-indene-1,3-dione]			3000 nM	33%	49%
COCCOCCNC(=O)C1C(=O)c2ccc(Oc3ccc4c(c3)C(=O)C(C(=O)NCCOCCOC)C4=O)cc2C1=O (centres unmarked) [Example 291, 5-({2-[hydroxy({[2-(2-methoxyethoxy)ethyl]amino})methyl]-1,3-dioxo-2,3-dihydro-1H-inden-5-yl}oxy)-N-[2-(2-methoxyethoxy)ethyl]-1,3-dioxo-2,3-dihydro-1H-indene-2-carboxamide]			1290 nM	69%	100%
CC(C)(C)OC(=O)N1CCSC1C(=O)C1C(=O)c2ccc(C(=O)c3ccc4c(c3)C(=O)C(C(=O)C3SCCN3C(=O)OC(C)(C)C)C4=O)cc2C1=O (centres unmarked) [Example 124, tert-butyl 2-[5-(2-{3-[(tert-butoxy)carbonyl]-1,3-thiazolidine-2-carbonyl}-1,3-dioxo-2,3-dihydro-1H-indene-5-carbonyl)-1,3-dioxo-2,3-dihydro-1H-indene-2-carbonyl]-1,3-thiazolidine-3-carboxylate]			6300 nM		
COCCOCCC(=O)C1C(=O)c2ccc(Oc3ccc4c(c3)C(=O)C(C(=O)CCOCCOC)C4=O)cc2C1=O (centres unmarked) [Example 383, 2-[3-(2-methoxyethoxy)propanoyl]-5-({2-[3-(2-methoxyethoxy)propanoyl]-1,3-dioxo-2,3-dihydro-1H-inden-5-yl}oxy)-2,3-dihydro-1H-indene-1,3-dione]				20%	45%
